From US20260224758A1, “ALPHA-SYNUCLEIN BINDERS AND METHODS OF USE” (Merck Sharp & Dohme LLC, priority 2023, published 2026)

Columns and labels:
[1] = molecular target: T1, triton-extracted alpha-synuclein from PD Tissue (Homo sapiens, UniProt P37840); assay: Alpha-synuclein tissue homogenate binding assay (Assay 1), displacement of [^3H]-1000; conditions: for Selectivity ratio (Assay 2/Assay 1): Aβ Tissue Ki / α-synuclein Tissue Ki; for Ki: insoluble fraction of PD brain homogenate, [^3H]-1000 3.0 nM, Kd 0.90 nM, read-out: α-synuclein Tissue Ki (Assay 1)
T1 construct: tissue Analytic Biological Services Inc; host or cells: human PD temporal cortex grey matter, Triton X-100 insoluble pellet

[2] = molecular target: aggregated beta amyloid in AD tissue (Homo sapiens, UniProt P05067); assay: Competitive radioligand binding to pathological aggregated beta amyloid in AD tissue (Assay 2), displacement of [^3H]-105; conditions: Aβ-rich AD frontal cortex homogenate, [^3H]-105, Kd 11.0 nM
Protocol: Frozen human brain samples of Alzheimer's disease (AD) were purchased from Analytic Biological Services Inc. The samples were post-mortem tissue from donors with clinical diagnosis of AD and much of the white matter was dissected out of the frontal cortex in order to enrich the tissue preparations for gray matter. Brain homogenates of gray matter enriched frontal cortex were prepared by homogenizing the tissue in ice cold Phosphate Buffered Saline (PBS), pH 7.4 at 80 mg wet weight tissue per 1 ml for 45 seconds at 4° C., on setting 16 of Polytron. The homogenate was further diluted with ice cold PBS to 30 mg wet weight tissue per 1 ml and homogenized for an additional minute as described above. Homogenates were aliquoted in 5 ml/tube and stored at −70° C. until use.
Radioligand [^3H]-105, prepared as described in ACS Med. Chem. Lett., Vol. 2, pages 498-502, was used in this assay.
For Assay 2 unlabeled test compounds were dissolved in DMSO at 10 mM. Dilutions of tests compounds to various concentrations were made in 100% DMSO at 1000× final assay concentration and 0.225 μl aliquots were dispensed into assay plates. Brain homogenates were diluted to 0.5 mg/ml from original 30 mg/ml volume in Assay Buffer, and 200 μl were added to the assay plate for a final concentration of 100 ug wet weight/assay well. [^3H]-105 was prepared at 10× final concentration in Assay Buffer plus 20% DMSO and 25 μl was added to the assay plate for final assay concentration of 3.0 nM. The plates were incubated at 37° C. for 90 minutes. Unbound and bound ligand were separated by filtration of bound onto GF/B filter plates (pre-treated for 30 min with 0.1% PEI) using a Packard Filtermate and washing away unbound with 2.5 mil ice cold 5 mM Tris at pH 7.4. Filter plates were dried for 1 hr at 57° C. and 50 μl Microscint was added to each well of the plate. The plates were counted for ^3H cpm for 1 min per well using PerkinElmer TopCount.

[3] = molecular target: human Parkinson's Disease tissue homogenates (Homo sapiens, UniProt P37840); assay: Hot saturation binding of [^3H]-2 in human PD cerebral cortex homogenates; conditions: PD Cortex (n = 5)
Protocol: (§1) To assess presence of alpha synucleinopathy (Lewy body, LB and Lewy neurites, LN) in the tested human brain samples, the adjacent human PD brain slices were used for Autoradiography (ARG) and Immunihistochemistry (1HC) studies. ARG was done using radio-labelled compounds which bind to LB and LN of PD brain sections. 1HC was performed with antibodies for LB & LN (LB509), Aβ (6E10) and p-tau (AT8). Tissue homogenate binding was performed using human PD brain homogenates of cerebral cortex. Human brains from donor without neurological disorder were used as control in the same study.
The frozen human brain samples of Parkinson's disease (PD) were provided by Banner Sun Health Institute (USA) and Sydney Brain Bank (Australia) through collaboration with Michael J Fox Foundation (MJFF). […]
[^3H]-2 was synthesized by Radio Compound Labelling Synthesis Group at Merck. […] Total binding was defined in the absence of competing compound, and non-displaceable binding was determined in the presence of 1 μM unlabeled self-block. […]
Incubation was carried out at 37° C. for 120 minutes, and then the assay samples were filtered onto GF/C filters using Skatron 12 well harvester, washing on setting 5-5-5 (~3×2 ml) ice cold buffer (Tris, pH 7.5). […] Add liquid scintillation fluid (2 mL Ultima Gold) into each vial, allow to soak into filters for 4 hours and counted in on Perkin Elmer Tri-Carb 2900TR for 1 minute. […]

[4] = molecular target: T2, alpha-synucleinopathy of PD brain (Homo sapiens, UniProt P37840); assay: In vitro autoradiography of [^3H]-2 on PD brain sections with IHC comparison; format: binding; conditions: PD brain amygdala section, 3 nM radioligand
T2 construct: They are post-mortem tissue from donors with clinical diagnosis of PD or non-PD; tissue Banner Sun Health Institute; Sydney Brain Bank; Analytic Biological Services Inc; Discovery Life Science; host or cells: human PD cerebral cortex homogenates (A4); human PD amygdala cryosections (A5)
Protocol: as §1
The frozen human brain samples of Parkinson's disease (PD) were provided by Banner Sun Health Institute (USA) and Sydney Brain Bank (Australia) through collaboration with Michael J Fox Foundation (MJFF). Additional PD and non-PD brain samples were purchased from vendors (Analytic Biological Services Inc., ABS, and Discovery Life Science, DLS). […] Total binding of radioligand in a brain slice was defined in the absence of competitor, and non-displaceable binding (NDB) was determined in the presence of competitor (1.0 μM unlabeled selfblock). […] After three weeks exposure, the plates were scanned in Amersham Typhoon Imager, and the scanned images were analyzed using MCID 7.1 software. [^3H]-microscales (Amersham Biosciences, GE), were used for quantification of radioligand binding density. […]

[5] = [^11C]-2 PET imaging in rhesus monkey; format: in vivo; conditions: IV, averaged over 30-90 minutes post injection
Protocol: A fasted rhesus monkey (7-11 kg) is anesthetized with ketamine I.M. (15 mpk) and the monkey is placed in the PET camera bed. An I.V, catheter is inserted into the right saphenous vein. For arterial sampling, the right femoral area is aseptically prepared and an arterial catheter is placed and fixed with sutures.
Subsequent anesthesia is maintained with Propofol. Induction dose is 5 mg/kg I.V., followed by an infusion at 0.4-0.6 mg/kg/min for the duration of the scanning procedure. The animal is intubated and positioned inside the camera gantry supine, head first. Animal is maintained on ventilated medical grade air:oxygen gas mixture at approximately 23 respirations per minute for the duration of the study. Ventilation I:E ratio, volume and rate of respiration is adjusted to maintain CO2 levels about 40 mmHg and SpO2 levels 95 to 100%. A temperature probe, pulse oximeter, non-invasive blood pressure cuff, and end tidal CO2 monitor are connected. […]
Whole blood samples are collected via arterial catheter into Heparin tubes for determination of radioactivity in whole blood and plasma. Samples are centrifuged and 20 μl whole blood and plasma are counted 20, 40, 80, 100, 120, and 150 seconds post PET ligand injection. Samples of blood (0.8 ml) are taken for metabolite correction and determination of radioactivity in plasma and whole blood at 3, 5, 15, 30, 60, and 90 minutes. […]

Chain of aggregated beta amyloid in AD tissue (P05067 672-711 limits assumed): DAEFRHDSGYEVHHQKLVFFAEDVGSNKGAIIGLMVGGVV

Row | SMILES | Selectivity ratio (Assay 2/Assay 1) [1] | Ki [1] [nM] | Ki [2] [nM] | Bmax [3] [nM] | autoradiographic binding versus LB509 and AT8 immunoreactivity [4] | distribution in monkey brain (PET image) [5]
1 | COC[C@H]1CN(c2ncc(C#Cc3ccc(N4CC[C@H](F)C4)nc3)cn2)CCN1c1ncccn1 [Example 72, 5-((6-((S)-3-fluoropyrrolidin-1-yl)pyridin-3-yl)ethynyl)-2-((R)-3-(methoxymethyl)-4-(pyrimidin-2-yl)piperazin-1-yl)pyrimidine] | 617 | 1.94 | ≥ 1200 |  |  | 
2 | FCCCOC[C@H]1CN(c2ncc(C#Cc3ccc(-c4cnco4)nc3)cn2)CCN1c1ncncn1 [Example 74, (R)-5-(5-((2-(3-((3-fluoropropoxy)methyl)-4-(1,3,5-triazin-2-yl)piperazin-1-yl)pyrimidin-5-yl)ethynyl)pyridin-2-yl)oxazole] | 618 | 1.94 | ≥ 1200 |  |  | 
3 | FCCOC[C@H]1CN(c2ncc(C#Cc3ccc(N4CCn5cnnc5C4)nc3)cn2)CCN1c1ncncn1 [Example 75, (R)-7-(5-((2-(3-((2-fluoroethoxy)methyl)-4-(1,3,5-triazin-2-yl)piperazin-1-yl)pyrimidin-5-yl)ethynyl)pyridin-2-yl)-5,6,7,8-tetrahydro-[1,2,4]triazolo[4,3-a]pyrazine] | 1312 | 0.915 | ≥ 1200 |  |  | 
4 | COC[C@H]1CN(c2ncc(C#Cc3ccc(-c4cnn(CCOCCF)c4)nc3)cn2)CCN1c1ncncn1 [Example 77, (R)-2-(4-(5-((6-(1-(2-(2-fluoroethoxy)ethyl)-1H-pyrazol-4-yl)pyridin-3-yl)ethynyl)pyrimidin-2-yl)-2-(methoxymethyl)piperazin-1-yl)-1,3,5-triazine] | 705 | 1.7 | ≥ 1200 |  |  | 
5 | Cn1cc(-c2ncc(C#Cc3cnc(N4CCN(c5ncncn5)[C@@H](COCCOCCF)C4)nc3)cn2)cn1 [Example 78, (R)-2-(2-((2-(2-fluoroethoxy)ethoxy)methyl)-4-(5-((2-(1-methyl-1H-pyrazol-4-yl)pyrimidin-5-yl)ethynyl)pyrimidin-2-yl)piperazin-1-yl)-1,3,5-triazine] | 753 | 1.59 | ≥ 1200 |  |  | 
6 | COCCOC[C@H]1CN(c2ncc(C#Cc3ccc(-n4ccnc4)nc3)c(F)n2)CCN1c1ncncn1 [Example 80, (R)-2-(4-(5-((6-(1H-imidazol-1-yl)pyridin-3-yl)ethynyl)-4-fluoropyrimidin-2-yl)-2-((2-methoxyethoxy)methyl)piperazin-1-yl)-1,3,5-triazine] | 794 | 1.51 | ≥ 1200 |  |  | 
7 | Cn1cc(-c2ncc(C#Cc3cnc(N4CCN(c5ncccn5)[C@@H](COCCOCCOCCF)C4)nc3)cn2)cn1 [Example 82, (R)-2-(3-((2-(2-(2-fluoroethoxy)ethoxy)ethoxy)methyl)-4-(pyrimidin-2-yl)piperazin-1-yl)-5-((2-(1-methyl-1H-pyrazol-4-yl)pyrimidin-5-yl)ethynyl)pyrimidine] | 840 | 1.43 | ≥ 1200 |  |  | 
8 | [3H]C([3H])([3H])OC[C@H]1CN(c2ncc(C=Cc3ccc(-n4ccnc4)nc3)cn2)CCN1c1ncccn1 [[^3H]-2, [^3H]-(R,E)-5-(2-(6-(1H-imidazol-1-yl)pyridin-3-yl)vinyl)-2-(3-(methoxymethyl)-4-(pyrimidin-2-yl)piperazin-1-yl)pyrimidine] |  |  |  | 17.0 ± 5.2 | specific binding | 
9 | [11CH3]OC[C@H]1CN(c2ncc(/C=C/c3ccc(-n4ccnc4)nc3)cn2)CCN1c1ncccn1 [[^11C]-2] |  |  |  |  |  | suitable distribution
